In patent US12122778B2, “Activating pyruvate kinase R” (Novo Nordisk Health Care AG, priority 2018, dated 2024):

Assays:
PKR(R510Q) = PKR(R510Q) (Homo sapiens, UniProt P30613, R510Q); experiment: Luminescence Biochemical Assay (Kinase Glo Plus), PKR R510Q mutant; conditions: without FBP; for activation at 1.54 µM: 1.54 μM compound, read-out: AC50 LUM KGP woFBP % Fold@1.54 μM mean; for AC50: read-out: AC50 LUM KGP woFBP AC50 μM gmean; for Emax: read-out: AC50 LUM KGP woFBP MAX % FOLD mean
Method: (§1) In some embodiments, a PKR Activating Compound can have: (1) an AC50 value of less than 0.1 μM (e.g., compounds with AC50 values of “+++” in Table 13), 0.1-1.0 μM (e.g., compounds with AC50 values of “++” in Table 13), or 1.01-40 μM (e.g., compounds with AC50 values of “+” in Table 13); (2) a MAX % Fold of 75%-250%, 250-500%, or 75%-500%; and/or (3) a % Fold@1.54 μM of 75%-250%, 250-500%, or 75%-500%. In some embodiments, a PKR Activating Compound has (1) an AC50 value of less than 1.0 μM; (2) a MAX % Fold of 75%-500%; and/or (3) a % Fold@1.54 μM of 75%-500%.
(§2) The phosphorylation of Adenosine-5′-diphosphate (ADP) by various mutants of PKR was determined by the Kinase Glo Plus Assay (Promega) in the presence or absence of FBP [D-Fructose-1,6-diphosphate; BOC Sciences, CAS: 81028-91-3] as follows. Unless otherwise indicated, all reagents were purchased from Sigma-Aldrich. All reagents were prepared in buffer containing 50 mM Tris-HCl, 100 mM KCl, 5 mM MgCl2, and 0.01% Triton X100, 0.03% BSA, and 1 mM DTT. Enzyme and PEP [Phospho(enol) pyruvic acid] were added at 2× to all wells of an assay-ready plate containing serial dilutions of test compounds or DMSO vehicle. Final enzyme concentrations for PKR(wt), PKR(R510Q), and PKR(G332S) were 0.8 nM, 0.8 nM, and 10 nM respectively. Final PEP concentration was 100 μM. The Enzyme/PEP mixture was incubated with compounds for 30 minutes at RT before the assay was initiated with the addition of 2×ADP [Adenosine-5′-diphosphate] and KinaseGloPlus. Final concentration of ADP was 100 μM. […] For assays containing FBP, that reagent is added at 30 μM upon reaction initiation. Reactions were allowed to progress for 45 minutes at RT until luminescence was recorded by the BMG PHERAstar FS Multilabel Reader. All compounds were tested in triplicate at concentrations ranging from 42.5 μM to 2.2 nM in 0.83% DMSO.
(§3) Luminescence values were converted to % Fold increase by normalizing to the average of the DMSO control and multiplying by 100. Max, min, slope and AC50 were determined by the standard four parameter fit algorithm of ActivityBase XE Runner. Compounds were evaluated with three parameters—AC50, MAX % Fold, and % Fold@1.54 μM (FIG. 1). The AC50 value for a compound is the concentration (μM) corresponding to the midway between the maximum and minimum values of the four parameter logistic curve fit (i.e., at which the % fold increase along the four parameter logistic curve fit is halfway between MAX % Fold and MIN % Fold (% Fold Midpoint)), MAX % Fold is the highest fold increase observed at any concentration of compound, and % Fold@1.54 μM is the fold increase at a compound concentration of 1.54 μM. The parameter % Fold@1.54 μM was selected to capture elements of both the AC50 and MAX % Fold and to provide a ranking based on both potency and effect. The compound concentration of 1.54 μM was chosen as one that can optimally differentiate the set of compounds based on the range of activities observed.
(§4) As set forth in Table 13 below, AC50 values (columns A, D, G) are defined as follows: ≤0.1 μM (+++); >0.1 μM and ≤1.0 μM (++); >1.0 μM and ≤40 μM (+); >40 μM (0). Max % FOLD values (columns B, E, H) are defined as follows: ≤75% (+); >75% and ≤250% (++); >250% and ≤500% (+++). % Fold@1.54 μM values (columns C, F, J) are defined as follows: ≤75% (+); >75% and ≤250% (++); >250% and ≤50000 (+++).

PKR(wt) = PKR(wt) (Homo sapiens, UniProt P30613); experiment: Luminescence Biochemical Assay (Kinase Glo Plus), wild type PKR; conditions: without FBP; for activation at 1.54 µM: 1.54 μM compound, read-out: AC50 LUM KGP woFBP % Fold@1.54 μM mean; for AC50: read-out: AC50 LUM KGP woFBP AC50 μM gmean; for Emax: read-out: AC50 LUM KGP woFBP MAX % FOLD mean
Method: as §1, §2, §3, §4

PKR(wt), sequence (P30613 whole entry): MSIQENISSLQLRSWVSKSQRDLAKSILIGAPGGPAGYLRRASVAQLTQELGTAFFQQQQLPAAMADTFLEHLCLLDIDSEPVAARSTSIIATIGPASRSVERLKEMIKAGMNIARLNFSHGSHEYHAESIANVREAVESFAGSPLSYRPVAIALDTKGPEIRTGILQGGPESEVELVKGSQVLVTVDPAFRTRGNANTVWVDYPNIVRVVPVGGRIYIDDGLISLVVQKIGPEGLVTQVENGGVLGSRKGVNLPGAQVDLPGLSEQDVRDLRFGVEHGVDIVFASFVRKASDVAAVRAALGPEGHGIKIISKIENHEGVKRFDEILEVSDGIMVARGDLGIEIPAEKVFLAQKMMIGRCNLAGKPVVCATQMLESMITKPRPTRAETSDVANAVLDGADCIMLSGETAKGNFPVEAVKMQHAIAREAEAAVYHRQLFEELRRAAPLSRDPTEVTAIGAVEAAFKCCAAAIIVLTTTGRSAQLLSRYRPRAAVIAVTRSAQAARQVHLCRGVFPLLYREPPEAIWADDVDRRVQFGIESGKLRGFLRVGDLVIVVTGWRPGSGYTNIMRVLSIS
PKR(R510Q), sequence (P30613 whole entry R510Q): as the sequence (P30613 whole entry) above, with R510Q counted along it

Row | activation at 1.54 µM (PKR(R510Q)) [%] | AC50 (PKR(R510Q)) [µM] | Emax (PKR(R510Q)) [%] | activation at 1.54 µM (PKR(wt)) [%] | AC50 (PKR(wt)) [µM] | Emax (PKR(wt)) [%] | Compound
1 | 75 to 250 | 0.1 to 1 | 75 to 250 | 250 to 50000 | 0.1 to 1 | 250 to 500 | O=C(NCc1ncco1)N1CC2=C(C1)CN(S(=O)(=O)c1ccc3ncsc3c1)C2 [Example 21-29, 5-(1,3-Benzothiazole-6-sulfonyl)-N-(1,3-oxazol-2-ylmethyl)-1H,2H,3H,4H,5H,6H-pyrrolo[3,4-c]pyrrole-2-carboxamide]
2 | 75 to 250 | 1 to 40 | 75 to 250 | 75 to 250 | 0.1 to 1 | 75 to 250 | CC(C)Oc1cccc(CNC(=O)N2CC3=C(C2)CN(S(=O)(=O)c2ccc4ncsc4c2)C3)c1 [Example 21-21, 5-(1,3-Benzothiazole-6-sulfonyl)-N-{[3-(propan-2-yloxy)phenyl]methyl}-1H,2H,3H,4H,5H,6H-pyrrolo[3,4-c]pyrrole-2-carboxamide]
3 | 75 to 250 | 1 to 40 | 250 to 500 | 75 to 250 | 1 to 40 | 250 to 500 | O=C(C1OCCc2ccccc21)N1CC2=C(C1)CN(S(=O)(=O)c1ccc(OC(F)F)cc1)C2 (stereo not drawn) [Example 18-33, 2-[4-(Difluoromethoxy)benzenesulfonyl]-5-(3,4-dihydro-1H-2-benzopyran-1-carbonyl)-1H,2H,3H,4H,5H,6H-pyrrolo[3,4-c]pyrrole]
4 | 250 to 50000 | ≤ 0.1 | 250 to 500 | 75 to 250 | ≤ 0.1 | 75 to 250 | Cc1ccc(F)c(S(=O)(=O)N2CC3=C(CN(C(=O)[C@H](O)c4ccccc4)C3)C2)c1 [Example 18-16, (2R)-1-[5-(2-fluoro-5-methylbenzenesulfonyl)-1H,2H,3H,4H,5H,6H-pyrrolo[3,4-c]pyrrol-2-yl]-2-hydroxy-2-phenylethan-1-one]
5 | 75 to 250 | 1 to 40 | 75 to 250 | 75 to 250 | 0.1 to 1 | 75 to 250 | O=C(NCc1ccno1)N1CC2=C(C1)CN(S(=O)(=O)c1ccc3ncsc3c1)C2 [Example 21-27, 5-(1,3-Benzothiazole-6-sulfonyl)-N-(1,2-oxazol-5-ylmethyl)-1H,2H,3H,4H,5H,6H-pyrrolo[3,4-c]pyrrole-2-carboxamide]
6 | 75 to 250 | 1 to 40 | 75 to 250 | 75 to 250 | 1 to 40 | 75 to 250 | CC(C)Oc1ccc(CNC(=O)N2CC3=C(C2)CN(S(=O)(=O)c2ccc4ncsc4c2)C3)cc1 [Example 21-31, 5-(1,3-Benzothiazole-6-sulfonyl)-N-{[4-(propan-2-yloxy)phenyl]methyl}-1H,2H,3H,4H,5H,6H-pyrrolo[3,4-c]pyrrole-2-carboxamide]
7 | 250 to 50000 | 0.1 to 1 | 250 to 500 | 250 to 50000 | 0.1 to 1 | 250 to 500 | Cc1cccc(CNC(=O)N2CC3=C(C2)CN(S(=O)(=O)c2ccc4ncsc4c2)C3)n1 [Example 21-32, 5-(1,3-Benzothiazole-6-sulfonyl)-N-[(6-methylpyridin-2-yl)methyl]-1H,2H,3H,4H,5H,6H-pyrrolo[3,4-c]pyrrole-2-carboxamide]
8 | 75 to 250 | 0.1 to 1 | 250 to 500 | 75 to 250 | 0.1 to 1 | 75 to 250 | N#Cc1ccc(S(=O)(=O)N2CC3=C(CN(C(=O)[C@H](O)c4ccccc4)C3)C2)cc1 [Example 18-45, 4-({5-[(2R)-2-hydroxy-2-phenylacetyl]-1H,2H,3H,4H,5H,6H-pyrrolo[3,4-c]pyrrol-2-yl}sulfonyl)benzonitrile]
9 | 75 to 250 | 0.1 to 1 | 250 to 500 | 75 to 250 | 0.1 to 1 | 250 to 500 | Cc1cc(CNC(=O)N2CC3=C(C2)CN(S(=O)(=O)c2ccc4ncsc4c2)C3)on1 [Example 21-9, 5-(1,3-Benzothiazole-6-sulfonyl)-N-[(3-methyl-1,2-oxazol-5-yl)methyl]-1H,2H,3H,4H,5H,6H-pyrrolo[3,4-c]pyrrole-2-carboxamide]
10 | 250 to 50000 | 0.1 to 1 | 250 to 500 | 250 to 50000 | 0.1 to 1 | 250 to 500 | Cc1cc(CNC(=O)N2CC3=C(C2)CN(S(=O)(=O)c2ccc(OC(F)F)cc2)C3)no1 [Example 21-5, 5-[4-(Difluoromethoxy)benzenesulfonyl]-N-[(5-methyl-1,2-oxazol-3-yl)methyl]-1H,2H,3H,4H,5H,6H-pyrrolo[3,4-c]pyrrole-2-carboxamide]
11 | 250 to 50000 | 0.1 to 1 | 250 to 500 | 250 to 50000 | 0.1 to 1 | 250 to 500 | Cc1cc(CNC(=O)N2CC3=C(C2)CN(S(=O)(=O)c2ccc(OC(F)F)cc2)C3)on1 [Example 21-6, 5-[4-(Difluoromethoxy)benzenesulfonyl]-N-[(3-methyl-1,2-oxazol-5-yl)methyl]-1H,2H,3H,4H,5H,6H-pyrrolo[3,4-c]pyrrole-2-carboxamide]
12 | 75 to 250 | 1 to 40 | 75 to 250 | 75 to 250 | 1 to 40 | 75 to 250 | O=C([C@H](O)c1ccccc1)N1CC2=C(C1)CN(S(=O)(=O)c1ccc(C(F)(F)F)nc1)C2 [Example 18-14, (2R)-2-hydroxy-2-phenyl-1-(5-{[6-(trifluoromethyl)pyridin-3-yl]sulfonyl}-1H,2H,3H,4H,5H,6H-pyrrolo[3,4-c]pyrrol-2-yl)ethan-1-one]
13 | 75 to 250 | 0.1 to 1 | 250 to 500 | 75 to 250 | 0.1 to 1 | 75 to 250 | O=C([C@H](O)c1ccccc1)N1CC2=C(C1)CN(S(=O)(=O)c1cccc(F)c1)C2 [Example 18-50, (2R)-1-[5-(3-fluorobenzenesulfonyl)-1H,2H,3H,4H,5H,6H-pyrrolo[3,4-c]pyrrol-2-yl]-2-hydroxy-2-phenylethan-1-one]
14 | 75 to 250 | 0.1 to 1 | 250 to 500 | 75 to 250 | 0.1 to 1 | 75 to 250 | O=C([C@H](O)c1ccccc1)N1CC2=C(C1)CN(S(=O)(=O)c1ccc(Cl)s1)C2 [Example 18-55, (2R)-1-{5-[(5-chlorothiophen-2-yl)sulfonyl]-1H,2H,3H,4H,5H,6H-pyrrolo[3,4-c]pyrrol-2-yl}-2-hydroxy-2-phenylethan-1-one]
15 | 250 to 50000 | ≤ 0.1 | 250 to 500 | 75 to 250 | ≤ 0.1 | 75 to 250 | COc1ccc(S(=O)(=O)N2CC3=C(CN(C(=O)[C@H](O)c4ccccc4)C3)C2)cc1F [Example 18-17, (2R)-1-[5-(3-fluoro-4-methoxybenzenesulfonyl)-1H,2H,3H,4H,5H,6H-pyrrolo[3,4-c]pyrrol-2-yl]-2-hydroxy-2-phenylethan-1-one]
